{"source": "paper PMC5299038", "about": "(Structure (London, England : 1993), 2017)", "key": {"TpCADE [1]": {"biological_target": "TpCADE (Trueperella pyogenes, UniProt Z9JAQ5MWQ7)", "test": "coupled glucose oxidase assay", "assay_type": "biochemical", "settings": "hydrolysis of the alpha-1,3-linkages"}, "TpCADE [2]": {"test_system": "TpCADE", "settings": "hydrolysis of the alpha-1,3-linkages"}}}
{"substance": "cycloalternan", "values": [{"measurement": "Km", "setting": "TpCADE [1]", "result": "2.1 ± 0.2", "unit": "mM"}, {"measurement": "Km", "setting": "TpCADE [2]", "result": "9.3 ± 1.5", "unit": "mM"}]}
